Measurements as given in patent US20250304644A1, “PEPTIDES TRIPLE AGONISTS OF GIP, GLP-1 AND GLP-2” (BAINAN BIOTECH APS, priority 2021, published 2025).
Where a SMILES comes first, the peptide text is derived from it. [ ]: non-standard residue; d: D form. The star is where a group is joined. Decanoyl = CCCCCCCCCC(=O)*; Aib = CC(C)(N)C(=O)O

What was measured:
Assay type in all cases: cell-based
[1] = target: T1, human GIPR (Homo sapiens, UniProt P48546); assay: cAMP assay (HitHunter) in transiently transfected COS-7 cells expressing human GIPR; settings: for Emax: COS-7, normalized to highest concentration of the endogenous ligand, read-out: Efficacy GIPR (Emax); for EC50: cAMP, COS-7 cells, human GIPR
T1 construct: host or cells: COS-7
T1 sequence (P48546 22-466): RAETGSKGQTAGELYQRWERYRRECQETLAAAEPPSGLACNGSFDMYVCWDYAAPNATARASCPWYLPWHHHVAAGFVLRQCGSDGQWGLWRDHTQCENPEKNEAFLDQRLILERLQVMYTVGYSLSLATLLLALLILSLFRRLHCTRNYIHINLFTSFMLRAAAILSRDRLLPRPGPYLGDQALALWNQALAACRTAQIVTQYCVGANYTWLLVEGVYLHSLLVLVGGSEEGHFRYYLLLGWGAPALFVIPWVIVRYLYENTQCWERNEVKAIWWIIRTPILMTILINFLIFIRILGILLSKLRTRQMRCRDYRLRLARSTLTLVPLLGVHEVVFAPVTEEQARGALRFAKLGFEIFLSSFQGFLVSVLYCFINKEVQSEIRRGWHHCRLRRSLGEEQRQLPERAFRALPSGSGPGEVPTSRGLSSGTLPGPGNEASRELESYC
Method: (§1) The next day the assay was initiated by washing with HEPES buffered saline (HBS) and followed by an incubation step with assay buffer (HBS added 1 mM isobutyl-1-methylxanthine (IBMX)) for 30 min at 37° C. The ligands were then added and incubated for an additional 30 min at 37° C. After ligand incubation, the HitHunter® CAMP assay (Eurofins DiscoverX, Fremont, […] USA) was carried out according to the manufacturer's instructions. […] The potencies (EC50 values) were determined by nonlinear regression using GraphPad Prism 9 (San Diego, California, USA). Sigmoid curves were fitted logistically. The efficacies (Emax values) were determined by normalization to the highest concentration applied of the endogenous ligand for each receptor.

[2] = target: T2, human GLP-2R (Homo sapiens, UniProt O95838); assay: cAMP assay (HitHunter) in transiently transfected COS-7 cells expressing human GLP-2R; settings: for Emax: COS-7, normalized to highest concentration of the endogenous ligand, read-out: Efficacy GLP-2R (Emax)
T2 construct: host or cells: COS-7
T2 sequence (O95838 1-553): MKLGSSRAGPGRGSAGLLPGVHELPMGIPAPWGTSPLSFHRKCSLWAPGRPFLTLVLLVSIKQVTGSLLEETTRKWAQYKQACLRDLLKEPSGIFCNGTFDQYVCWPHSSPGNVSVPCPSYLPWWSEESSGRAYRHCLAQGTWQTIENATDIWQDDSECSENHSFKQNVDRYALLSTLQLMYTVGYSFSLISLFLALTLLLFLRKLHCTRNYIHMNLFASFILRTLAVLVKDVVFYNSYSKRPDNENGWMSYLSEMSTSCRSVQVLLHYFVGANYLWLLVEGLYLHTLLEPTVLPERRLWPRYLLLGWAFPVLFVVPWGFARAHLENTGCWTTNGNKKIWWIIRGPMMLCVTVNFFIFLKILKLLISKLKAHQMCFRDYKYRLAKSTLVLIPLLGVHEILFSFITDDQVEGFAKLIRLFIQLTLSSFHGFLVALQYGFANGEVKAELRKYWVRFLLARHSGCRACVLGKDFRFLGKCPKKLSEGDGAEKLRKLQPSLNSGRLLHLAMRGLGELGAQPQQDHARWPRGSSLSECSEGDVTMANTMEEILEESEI
Method: as §1

[3] = target: T3, human GLP-1R (Homo sapiens, UniProt P43220); assay: cAMP assay (HitHunter) in transiently transfected COS-7 cells expressing human GLP-1R; settings: for Emax: COS-7, normalized to highest concentration of the endogenous ligand, read-out: Efficacy GLP-1R (Emax); for EC50: cAMP, COS-7 cells, human GLP-1R, read-out: EC50 (nM) GLP-1R
T3 construct: host or cells: COS-7
Method: as §1

T3 sequence (P43220 24-463): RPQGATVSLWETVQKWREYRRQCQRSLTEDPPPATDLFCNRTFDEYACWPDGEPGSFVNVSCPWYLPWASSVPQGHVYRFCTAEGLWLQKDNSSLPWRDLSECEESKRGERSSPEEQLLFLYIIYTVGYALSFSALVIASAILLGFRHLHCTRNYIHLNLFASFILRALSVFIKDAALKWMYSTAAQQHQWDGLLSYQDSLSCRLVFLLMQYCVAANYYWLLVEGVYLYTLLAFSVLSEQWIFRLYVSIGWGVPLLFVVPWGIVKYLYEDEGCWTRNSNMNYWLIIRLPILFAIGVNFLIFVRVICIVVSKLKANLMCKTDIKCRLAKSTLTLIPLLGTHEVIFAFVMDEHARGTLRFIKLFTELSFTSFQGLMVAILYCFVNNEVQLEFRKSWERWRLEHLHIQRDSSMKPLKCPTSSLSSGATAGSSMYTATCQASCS

Row | Compound | Emax [1] [%] | Emax [2] [%] | Emax [3] [%] | EC50 [1] [nM] | EC50 [3] [nM] | EC50 ([2]; cAMP, COS-7 cells, human GLP-2R, read-out: EC50 (nM) GLP-2R) [nM]
1 | CCCCCCCCCC(=O)NCCCC[C@H](NC(=O)[C@@H](NC(=O)[C@@H](NC(=O)[C@H](CCCCN)NC(=O)[C@@H](NC(=O)[C@H](CCC(N)=O)NC(=O)[C@@H](NC(=O)[C@H](CC(C)C)NC(=O)[C@H](Cc1c[nH]c2ccccc12)NC(=O)[C@H](CC(N)=O)NC(=O)[C@@H](NC(=O)[C@H](Cc1ccccc1)NC(=O)[C@H](CC(=O)O)NC(=O)[C@H](CCCNC(=N)N)NC(=O)[C@H](C)NC(=O)[C@H](C)NC(=O)[C@H](CC(C)C)NC(=O)[C@H](CC(N)=O)NC(=O)[C@H](CC(=O)O)NC(=O)[C@H](CC(C)C)NC(=O)[C@@H](NC(=O)[C@@H](NC(=O)[C@H](CO)NC(=O)[C@H](Cc1ccc(O)cc1)NC(=O)[C@H](CC(=O)O)NC(=O)[C@H](CO)NC(=O)[C@@H](NC(=O)[C@H](Cc1ccccc1)NC(=O)[C@@H](NC(=O)CNC(=O)[C@H](CC(=O)O)NC(=O)C(C)(C)NC(=O)[C@@H](N)Cc1c[nH]cn1)[C@@H](C)O)[C@@H](C)CC)[C@@H](C)O)[C@@H](C)CC)[C@@H](C)CC)[C@@H](C)CC)[C@@H](C)O)[C@@H](C)CC)[C@@H](C)O)C(N)=O (single isomer, unassigned) [Compound 6] | 97 | 99 | 96 |  |  | 
2 | CCCCCCCCCC(=O)NCCCC[C@H](NC(=O)[C@@H](NC(=O)[C@@H](NC(=O)[C@H](CCCCN)NC(=O)[C@@H](NC(=O)[C@H](CCC(N)=O)NC(=O)[C@@H](NC(=O)[C@H](CC(C)C)NC(=O)[C@H](Cc1c[nH]c2ccccc12)NC(=O)[C@H](CC(N)=O)NC(=O)[C@@H](NC(=O)[C@H](Cc1ccccc1)NC(=O)[C@H](CC(=O)O)NC(=O)[C@H](CCCNC(=N)N)NC(=O)[C@H](C)NC(=O)[C@H](C)NC(=O)[C@H](CC(C)C)NC(=O)[C@H](C)NC(=O)[C@H](CC(=O)O)NC(=O)[C@H](CC(C)C)NC(=O)[C@@H](NC(=O)[C@@H](NC(=O)[C@H](CO)NC(=O)[C@H](Cc1ccc(O)cc1)NC(=O)[C@H](CC(=O)O)NC(=O)[C@H](CO)NC(=O)[C@@H](NC(=O)[C@H](Cc1ccccc1)NC(=O)[C@@H](NC(=O)CNC(=O)[C@H](CC(=O)O)NC(=O)C(C)(C)NC(=O)[C@@H](N)Cc1c[nH]cn1)[C@@H](C)O)[C@@H](C)CC)[C@@H](C)O)[C@@H](C)CC)[C@@H](C)CC)[C@@H](C)CC)[C@@H](C)O)[C@@H](C)CC)[C@@H](C)O)C(N)=O [Compound 5] (H-H[Aib]DGTFISDYSTILDALAARDFINWLIQTKITK(Decanoyl)-NH2) | 111 | 110 | 105 | 0.158 | 1.78 | 2
3 | CCCCCCCCCC(=O)NCCCC[C@H](NC(=O)[C@@H](NC(=O)[C@@H](NC(=O)[C@H](CCCCN)NC(=O)[C@@H](NC(=O)[C@H](CCC(N)=O)NC(=O)[C@@H](NC(=O)[C@H](CC(C)C)NC(=O)[C@H](Cc1c[nH]c2ccccc12)NC(=O)[C@H](CC(N)=O)NC(=O)[C@@H](NC(=O)[C@H](Cc1ccccc1)NC(=O)[C@H](CC(=O)O)NC(=O)[C@H](CCCNC(=N)N)NC(=O)[C@H](C)NC(=O)[C@H](C)NC(=O)[C@H](CC(C)C)NC(=O)[C@H](CC(N)=O)NC(=O)[C@H](CCC(=O)O)NC(=O)[C@H](CC(C)C)NC(=O)[C@@H](NC(=O)[C@@H](NC(=O)[C@H](CO)NC(=O)[C@H](Cc1ccc(O)cc1)NC(=O)[C@H](CC(=O)O)NC(=O)[C@H](CO)NC(=O)[C@@H](NC(=O)[C@H](Cc1ccccc1)NC(=O)[C@@H](NC(=O)CNC(=O)[C@H](CC(=O)O)NC(=O)C(C)(C)NC(=O)[C@@H](N)Cc1c[nH]cn1)[C@@H](C)O)[C@@H](C)CC)[C@@H](C)O)[C@@H](C)CC)[C@@H](C)CC)[C@@H](C)CC)[C@@H](C)O)[C@@H](C)CC)[C@@H](C)O)C(N)=O [Compound 7] (H-H[Aib]DGTFISDYSTILENLAARDFINWLIQTKITK(Decanoyl)-NH2) | 96 | 97 | 95 | 0.794 | 2.82 | 
4 | CCCCCCCCCC(=O)NCCCC[C@H](NC(=O)[C@@H](NC(=O)[C@@H](NC(=O)[C@H](CCCCN)NC(=O)[C@@H](NC(=O)[C@H](CCC(N)=O)NC(=O)[C@@H](NC(=O)[C@H](CC(C)C)NC(=O)[C@H](Cc1c[nH]c2ccccc12)NC(=O)[C@H](CC(N)=O)NC(=O)[C@@H](NC(=O)[C@H](Cc1ccccc1)NC(=O)[C@H](CC(=O)O)NC(=O)[C@H](CCCNC(=N)N)NC(=O)[C@H](C)NC(=O)[C@H](C)NC(=O)[C@@H](NC(=O)[C@H](CC(N)=O)NC(=O)[C@H](CC(=O)O)NC(=O)[C@H](CC(C)C)NC(=O)[C@@H](NC(=O)[C@@H](NC(=O)[C@H](CO)NC(=O)[C@H](Cc1ccc(O)cc1)NC(=O)[C@H](CC(=O)O)NC(=O)[C@H](CO)NC(=O)[C@@H](NC(=O)[C@H](Cc1ccccc1)NC(=O)[C@@H](NC(=O)CNC(=O)[C@H](CC(=O)O)NC(=O)C(C)(C)NC(=O)[C@@H](N)Cc1c[nH]cn1)[C@@H](C)O)[C@@H](C)CC)[C@@H](C)O)[C@@H](C)CC)[C@@H](C)CC)[C@@H](C)CC)[C@@H](C)CC)[C@@H](C)O)[C@@H](C)CC)[C@@H](C)O)C(N)=O [Compound 15] (H-H[Aib]DGTFISDYSTILDNIAARDFINWLIQTKITK(Decanoyl)-NH2; N-terminus assumed) | 98 |  | 90 | 0.794 |  | 

Further molecules by falling EC50 [1], results first:

Row | Emax [1] [%] | Emax [2] [%] | Emax [3] [%] | EC50 [1] [nM] | EC50 [3] [nM] | EC50 ([2]; cAMP, COS-7 cells, human GLP-2R, read-out: EC50 (nM) GLP-2R) [nM] | Compound
5 | 102 | 92 | 82 | 1.12 | 25.1 |  | CCCCCCCCCC(=O)NCCCC[C@H](NC(=O)[C@@H](NC(=O)[C@@H](NC(=O)[C@H](CCCCN)NC(=O)[C@@H](NC(=O)[C@H](CCC(N)=O)NC(=O)[C@@H](NC(=O)[C@H](CC(C)C)NC(=O)[C@H](Cc1c[nH]c2ccccc12)NC(=O)[C@H](CC(N)=O)NC(=O)[C@@H](NC(=O)[C@H](Cc1ccccc1)NC(=O)[C@H](CC(=O)O)NC(=O)[C@H](CCCNC(=N)N)NC(=O)[C@H](C)NC(=O)[C@H](C)NC(=O)[C@H](CC(C)C)NC(=O)[C@H](CC(C)C)NC(=O)[C@H](CC(=O)O)NC(=O)[C@H](CC(C)C)NC(=O)[C@@H](NC(=O)[C@@H](NC(=O)[C@H](CO)NC(=O)[C@H](Cc1ccc(O)cc1)NC(=O)[C@H](CC(=O)O)NC(=O)[C@H](CO)NC(=O)[C@@H](NC(=O)[C@H](Cc1ccccc1)NC(=O)[C@@H](NC(=O)CNC(=O)[C@H](CC(=O)O)NC(=O)C(C)(C)NC(=O)[C@@H](N)Cc1c[nH]cn1)[C@@H](C)O)[C@@H](C)CC)[C@@H](C)O)[C@@H](C)CC)[C@@H](C)CC)[C@@H](C)CC)[C@@H](C)O)[C@@H](C)CC)[C@@H](C)O)C(N)=O [Compound 4] (H-H[Aib]DGTFISDYSTILDLLAARDFINWLIQTKITK(Decanoyl)-NH2)
6 | 80 | 101 | 94 | 0.631 | 1.78 |  | CCCCCCCCCC(=O)NCCCC[C@H](NC(=O)[C@@H](NC(=O)[C@@H](NC(=O)[C@H](CCCCN)NC(=O)[C@@H](NC(=O)[C@H](CCC(N)=O)NC(=O)[C@@H](NC(=O)[C@H](CC(C)C)NC(=O)[C@H](Cc1c[nH]c2ccccc12)NC(=O)[C@H](CC(N)=O)NC(=O)[C@@H](NC(=O)[C@H](Cc1ccccc1)NC(=O)[C@H](CC(=O)O)NC(=O)[C@H](CCCNC(=N)N)NC(=O)[C@H](C)NC(=O)[C@H](C)NC(=O)[C@H](CC(C)C)NC(=O)[C@H](CC(N)=O)NC(=O)[C@H](CC(=O)O)NC(=O)[C@H](CC(C)C)NC(=O)[C@@H](NC(=O)[C@@H](NC(=O)[C@H](C)NC(=O)[C@H](Cc1ccc(O)cc1)NC(=O)[C@H](CC(=O)O)NC(=O)[C@H](CO)NC(=O)[C@@H](NC(=O)[C@H](Cc1ccccc1)NC(=O)[C@@H](NC(=O)CNC(=O)[C@H](CC(=O)O)NC(=O)C(C)(C)NC(=O)[C@@H](N)Cc1c[nH]cn1)[C@@H](C)O)[C@@H](C)CC)[C@@H](C)O)[C@@H](C)CC)[C@@H](C)CC)[C@@H](C)CC)[C@@H](C)O)[C@@H](C)CC)[C@@H](C)O)C(=O)O [Compound 3] (H-H[Aib]DGTFISDYATILDNLAARDFINWLIQTKITK(Decanoyl)-OH; N-terminus assumed)
